The target in data set [1] is T1, β1 cardiac receptors (Cavia porcellus, UniProt H0W3H1).
T1 construct: chronotropic response to noradrenaline of guinea pig auricles; from tissue; host or cells: guinea pig auricles (chronotropic response); electrically stimulated guinea pig left auricles (inotropic response)
Put plainly: β-lytic activity: inhibition of chronotropic response to noradrenaline of auricles (pA2). Further details: species or system guinea pig. Here is the method:
(§1) The effect on β1 cardiac receptors is measured by inhibition of the chronotropic response to noradrenaline of guinea pig auricles and of the inotrope response to isoproterenol of guinea pig left auricles which were electrically stimulated. The cardioselectivity is appreciated by measuring the antagonist effect at the level of β2 receptors of the guinea pig trachea. To this end, a tracheal chain is contracted by a maximum concentration of histamine and inhibition of relaxation by isoproterenol is measured. The values calculated for cardioselectivity are obtained by considering the difference between pA2 values of the chronotrope response and the relaxation on the one hand (1st column) and of the inotrope response and relaxation on the other hand (2nd column).

Data set [2] addresses T1, β1 cardiac receptors. Put plainly: β-lytic activity: inhibition of inotrope response to isoproterenol of electrically stimulated left auricles (pA2). On the set-up: species or system guinea pig. Here is the method:
as §1

Data set [3] deals with β1 cardiac receptors versus β2 tracheal receptors. In words: Cardioselectivity (auricles versus trachea). On the set-up: species or system guinea pig. To be noted: for times more active on β cardiac receptors than on β2 receptors: from difference of pA2 on auricles and trachea; for Cardioselectivity: Table III, from pA2 auricles and trachea; for Cardioselectivity (in words): guinea pig auricles vs trachea. Here is the method: as §1, with “column). For these various experiences, pA2 is calculated according to the Van Rossum method (Arch. Inern. Pharmacodyn., 143, 299-330, 1963).” for “column).”

The nature of data set [4]: LD50 in mice, oral (Lichtfield and Wilcoxon method). It counts as in vivo. The conditions noted are these: mouse, in vivo, po, read-out: LD50. Here is the method:
LD50 were determined according to the Lichtfield and Wilcoxon method (J. Pharmacol. Exp. Ther. 96, 99, 1949) and expressed in mg/kg. The products were administered to mice orally.

Data set [5] is described as follows: Antihypertensive activity, oral, unanesthetized spontaneously hypertensive rats. It counts as in vivo. To be noted: 60 mg/kg oral; for Antihypertensive activity (score): spontaneously hypertensive rats; for Antihypertensive activity (index): systolic pressure difference (cmHg) every 30 min multiplied by time coefficient 1 to 6. Here is the method:
[…] Only rats having a systolic pressure of 180 to 220 mm Hg are used. Two rats are used by product. The treatments are administered without the knowledge of the person making the measure.
The antihypertensive effects were recorded according to a score followed by an index. The scoring system is as follows.
The index is calculated by multiplying the systolic pressure difference (cmHg) measured every 30 minutes after the treatment, by a coefficient of 1 to 6 corresponding to times of 30 to 180 minutes.

Data set [6] has as its system isolated guinea pig auricles. Put plainly: Chronotrope effect of the substance on isolated auricles. The conditions noted are these: 10^-6 M, 20 minutes, Tyrode, 29° C. Here is the method:
The β-lytic effect was searched on the chronotropic response to noradrenaline of isolated guinea pig auricles. Auricles were incubated for 20 minutes in a Tyrode solution at 29° C. in the presence of the substance to be tested at the concentration of 10^-6 M. A positive (+) or negative (-) chronotrope effect of the substance was noted using the following scores: […]

For data set [7], the system named is chronotropic response to noradrenaline of isolated guinea pig auricles. Put plainly: β-lytic effect on the chronotropic response to noradrenaline of isolated auricles. Here is the method: The β-lytic effect was searched on the chronotropic response to noradrenaline of isolated guinea pig auricles. Auricles were incubated for 20 minutes in a Tyrode solution at 29° C. in the presence of the substance to be tested at the concentration of 10^-6 M. A positive (+) or negative (-) chronotrope effect of the substance was noted using the following scores:
Then, the chronotrope effect of cumulative increasing concentrations of noradrenaline was recorded. The pD2 (-log CE50) value was calculated. A score of β-lytic activity of the substance was given as follows:
If the score at concentration of 10^-6 M was 3 or 4, the effect of the substance was examined at concentration of 10^-7 M and a score was recorded according to the same procedure.

Data set [8] concerns guinea pig ileum contractions induced by histamine. Put plainly: Antispasmodic activity against ileum contractions induced by histamine. Here is the method: (§2) The antispasmodic activity of the studied substances was examined against guinea pig ileum contractions induced by histamine and acetylcholine.
(§3) These experiences allow to make it obvious an antihistaminic, anticholinergic or musculotrope activity. The response to the contracting agent (sub-maximum concentration) is obtained every 5 minutes before and after injection of increasing concentrations of tested products (10^-7 M to 10^-4 M). The inhibition percentage under the influence of tested products is calculated and the theoretical concentration giving 50% of inhibition is graphically determined for each experience. These values are expressed in -log CI50 (M).

In data set [9] the test system is guinea pig ileum contractions induced by acetylcholine. In words: Antispasmodic activity against ileum contractions induced by acetylcholine. Here is the method:
as §2, §3

Data set [10] addresses T2, β2 receptors of the guinea pig trachea (Cavia porcellus, UniProt Q8K4Z4).
T2 construct: β2 receptors of the guinea pig trachea; from tissue; host or cells: guinea pig tracheal chain contracted by histamine
Put plainly: Antagonist effect on relaxation of trachea by isoproterenol (pA2). To be noted: histamine-contracted tracheal chain, read-out: β-lytic activity, pA2 trachea relaxation (converted). Here is the method: as §1

The subject of another data set is cardiac receptors. Put plainly: Cardioselectivity in vivo, anesthetised dog: cardiac receptors. The conditions noted are these: 30 μg/kg i.v.
In the next data set the test system is peripheral β2 receptors. In words: Cardioselectivity in vivo, anesthetised dog: peripheral β2 receptors. The conditions noted are these: 30 μg/kg i.v.
Data set [11] relates to tachycardia caused by isoprotenenol. In words: β-lytic activity in vigile rat (antagonism of tachycardia caused by isoproterenol). It counts as in vivo. The conditions noted are these: 10 mg/kg orally; isoproterenol 0.1 mg/kg transcutaneously.
For the next data set, the system named is platelet agglutination. In words: Inhibition of platelet agglutination in plasma (turbidimetric method, Thrombofax). The class given is cell-based. The conditions noted are these: plasma rich in platelets, preincubated 4 minutes. Here is the method:
The measure of platelet agglutination inhibition was made according to the turbidimetric method of G. V. R. Born and M. J. Cross (J. Physiol., 168, 178, […]). The plasma rich in platelets was preincubated for 4 minutes before addition of the inducing agent, namely Thrombofax. The variations of turbidity were recorded for a period of 10 minutes with a "Chronolog" agglutinometer. The inhibition of the maximum amplitude of agglutination was measured.

The nature of data set [12]: Peripheral vasodilator activity, anesthetized dog, femoral arterial circulation. The class given is in vivo. To be noted: 30 μg/kg injected directly. Here is the method: The peripheral vasodilator activity was measured on anesthetized dog at the level of femoral arterial circulation. To this end, the femoral artery the collaterals of which have been ligated is perfused at constant rate with blood taken from aorta. The perfusion pressure measured at the level of the femoral artery thus varies as a function of the resistance of the perfused area. The tested products and the corresponding solvents are directly injected at the dose of 30 μg/kg. The cardiac output being maintained constant, a vasodilation is thus measured by a decrease of the perfusion pressure. The latter is scored in comparison with the action of papaverine, considered as a reference and injected one time by group of 4 products. When interesting, the products are tested with other doses under the same conditions.
The vasodilator activity is appreciated as follows: […]

Where [13] appears, read: noradrenaline, read-out: β-lytic activity, pA2 auricles chronotrope response (converted).
The mark [14] stands for this setting: isoproterenol, electrically stimulated left auricles, read-out: β-lytic activity, pA2 auricles inotrope response (converted).

“Also recorded” adds a separate entry of the source.

T1 sequence (H0W3H1 1-470): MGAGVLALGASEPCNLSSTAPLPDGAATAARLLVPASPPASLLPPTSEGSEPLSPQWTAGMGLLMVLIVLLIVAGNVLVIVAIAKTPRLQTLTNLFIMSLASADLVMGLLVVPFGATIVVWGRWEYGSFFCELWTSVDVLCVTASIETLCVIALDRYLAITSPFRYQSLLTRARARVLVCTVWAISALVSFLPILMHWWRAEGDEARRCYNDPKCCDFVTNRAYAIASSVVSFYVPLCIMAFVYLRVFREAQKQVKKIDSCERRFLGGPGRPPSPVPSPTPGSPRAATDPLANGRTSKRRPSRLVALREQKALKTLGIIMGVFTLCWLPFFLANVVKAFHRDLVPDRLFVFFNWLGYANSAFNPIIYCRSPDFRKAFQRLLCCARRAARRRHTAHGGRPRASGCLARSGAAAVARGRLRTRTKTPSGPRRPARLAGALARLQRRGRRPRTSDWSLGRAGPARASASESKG
T2 sequence (Q8K4Z4 whole entry): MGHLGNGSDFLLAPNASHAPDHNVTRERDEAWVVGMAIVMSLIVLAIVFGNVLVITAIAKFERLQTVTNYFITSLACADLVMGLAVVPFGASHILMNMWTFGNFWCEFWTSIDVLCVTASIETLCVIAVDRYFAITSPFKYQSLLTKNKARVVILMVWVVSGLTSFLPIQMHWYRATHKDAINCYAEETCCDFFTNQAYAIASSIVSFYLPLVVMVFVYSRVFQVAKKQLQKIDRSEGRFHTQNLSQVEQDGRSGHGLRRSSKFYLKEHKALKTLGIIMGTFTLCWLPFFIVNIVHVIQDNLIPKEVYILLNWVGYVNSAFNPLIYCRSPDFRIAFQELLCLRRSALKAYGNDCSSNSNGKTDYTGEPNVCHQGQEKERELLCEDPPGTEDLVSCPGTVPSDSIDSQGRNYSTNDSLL

`CC(C)NCC(O)COc1ccc(CC(N)=O)cc1` (stereo not shown) [Atenolol, reference compound]: the Kb at β1 cardiac receptors [1] is 44.7 nM; at β1 cardiac receptors [2], 129 nM. Also, the “times more active on β cardiac receptors than on β2 receptors” value (from here on “times more active”) in data set [3] was determined as 50 times.

Usually LD50 stands for the dose expected to kill half of the subjects tested. In the case of `CC(C)NCC(O)COc1ccc(-c2nc3ccccc3[nH]2)cc1` (stereo not shown) [Compound 1, 2-[4-(3-isopropylamino-2-hydroxypropoxy)phenyl]benzimidazole], the LD50 in [4] is 2300 mg/kg. Besides, the “Antihypertensive activity (score)” value in [5] was “++++ (reduction>50 mm Hg)”. In addition, the “Antihypertensive activity (index)” value in [5] is 174. Besides, the “Chronotrope effect (score)” value in data set [6] was 0 (if the frequency modification was comprised between +6 and -6). Further, the “β-lytic effect (score)” value in [7] (10^-6 M) was 3 (if 6.00≥pD2 ≥5.51); in data set [7] (10^-7 M) it was 2 (if 6.40≥pD2 ≥6.01). Further, the “Antispasmodic activity, Hist. (-log CI50 (M))” value in data set [8] is 5.18 -log CI50 (M). For the same compound, the “Antispasmodic activity, Ac. Chol. (-log CI50 (M))” value in [9] is on record as 5.21 -log CI50 (M). Moreover, the “Activity on β cardiac receptors (in words)” value at β1 cardiac receptors [1] is “active β-agents on β cardiac receptors”. The Kb at β1 cardiac receptors [1] (setting [13]) is 13.5 nM; at β1 cardiac receptors [2] (setting [14]), 35.5 nM; in data set [10], 28800 nM. Further, in [3], the Cardioselectivity stood at 1.73. Besides, the “times more active” value in data set [3] stood at 2140 times. Also, the “Cardioselectivity (in words)” value in data set [3] is “important cardioselectivity; also recorded: much higher than that of metopropol and atenolol”. Moreover, in the data set with cardiac receptors, the “Blocking of stimulation of cardiac receptors” value is on record as “blocks stimulation of cardiac receptors”. Further, the “Effect on stimulation of peripheral β2 receptors” value in the data set with peripheral β2 receptors is recorded as “without affecting that of peripheral β2 receptors”. Moreover, the “β-lytic activity in vigile rat” value in data set [11] is recorded as “demonstrated”. In addition, in the data set on platelet agglutination, the “Inhibition of platelet agglutination” value is reported as “active”.

As for `CCCCCCCCNCC(O)COc1ccc(-c2nc3ccccc3[nH]2)cc1` (stereo not shown) [Compound 2, 2-[4-(3-n-octylamino-2-hydroxypropoxy)phenyl]benzimidazole], the LD50 in data set [4] was above 300 mg/kg. In addition, the “Antihypertensive activity (score)” value in [5] is 0 (reduction <10 mm Hg). Besides, in data set [8], the “Antispasmodic activity, Hist. (-log CI50 (M))” value was 6.46 -log CI50 (M). The “Antispasmodic activity, Ac. Chol. (-log CI50 (M))” value in data set [9] was 6.64 -log CI50 (M). In data set [12], the Peripheral vasodilator activity entry is given as “active”. For the same compound, in the data set on platelet agglutination, the “Inhibition of platelet agglutination” value was “active”.

Regarding `COc1ccc(CCNCC(O)COc2ccc(-c3nc4ccccc4[nH]3)cc2)cc1OC` (stereo not shown) [Compound 5, 2-[[4-{3-[2-(3,4-dimethoxyphenyl)ethylamino]-2-hydroxypropoxy}phenyl]]benzimidazole], the LD50 in [4] was above 3000 mg/kg. For the same compound, in data set [5], the “Antihypertensive activity (score)” value was “+++ (reduction of 30 to 50 mm Hg)” and the “Antihypertensive activity (index)” value stood at 34. For the same compound, in data set [6], the “Chronotrope effect (score)” value is 0 (if the frequency modification was comprised between +6 and -6). Also, the “β-lytic effect (score)” value in data set [7] (10^-6 M) is on record as 3 (if 6.00≥pD2 ≥5.51). For the same compound, the “β-lytic effect (score)” value in data set [7] (10^-7 M) is 2 (if 6.40≥pD2 ≥6.01). The “Antispasmodic activity, Hist. (-log CI50 (M))” value in data set [8] is recorded as 5.80 -log CI50 (M). Further, the “Antispasmodic activity, Ac. Chol. (-log CI50 (M))” value in [9] is listed as 5.69 -log CI50 (M). Besides, the “Activity on β cardiac receptors (in words)” value on β1 cardiac receptors [1] is given as “active β-agents on β cardiac receptors”. For the same compound, on β1 cardiac receptors [1] (setting [13]), the Kb was 21.4 nM. The Kb on β1 cardiac receptors [2] (setting [14]) was 39.8 nM. Also, the Kb in data set [10] is above 100000 nM. In data set [3], the Cardioselectivity was above 1.91; the “times more active” value was “more than 5600 times”; the “Cardioselectivity (in words)” value is “important cardioselectivity; also recorded: much higher than that of metopropol and atenolol”.
